Consider two compounds from US20250186546A1, “Compositions and Methods to Prevent, Inhibit or Treat Autoimmune and Vascular Disease” (priority 2023, published 2025).

Assay [1] deals with BMDMs. The assay can be described thus: Engulfment of ACs with increased rigidity by BMDMs. Type of assay: cell-based, mouse. The conditions noted are these: GA 10 nM, 1 minute, control and Wdfy3 knockout BMDMs. As for the experimental part:
AC preparation and labeling for efferocytosis assays: Jurkat cells (about 10 μm, a human T cell line) and mouse thymocytes (about 5 μm, isolated from mouse thymi) are treated with staurosporine for 3 hours to induce apoptosis. The method routinely yields greater than 90% Annexin V+ ACs (Shi et al., 2022). […] Mouse RBC are isolated from whole blood freshly and opsonized by IgG (Sosale et al., 2015). Storage at 4° C. for one-week or treatment by GA increases rigidity (Sosale et al., 2015). Mouse RBC are freshly prepared because commercial RBCs are often stored in cold conditions for shipment and thus likely already have increased rigidity. Cells will be labeled by TAMRA (10 μg/mL, 25 minutes, Invitrogen #C1171) that labels both DNA and protein (Shi et al., 2022; Bi et al., 2022). To assess uptake and acidification, ACs are fluorescently labeled by TAMRA (pH-insensitive) and pHrodo (20 ng/mL, 30 minutes, ThermoFisher #P35373, pH-sensitive and only fluoresces in acidic environments) (Shi et al., 2022; Bi et al., 2022). RBC are labeled by PKH26 which labels membrane lipids (Sigma PKH26GL-1KT) (Shi et al., 2022). Cell debris is prepared by passing labeled ACs 10 times through 27G needles (Puigdellivol et al., 2021). […] The % of macrophages that engulfed cargo will be quantified by FACS (Shi et al., 2022).

The subject of assay [2] is Jurkat cells. The assay can be described thus: Induction of apoptosis in Jurkat cells. Type of assay: cell-based, human. Particulars: 5 μg/mL, 3 hours. On the procedure: Apoptotic Jurkat cells were generated by treating Jurkat cells with 5 μg/mL staurosporine in RPMI-1640 medium for 3 hours at a density of 2.5×10^6 cells/mL at 37° C., 5% CO2. The method routinely yields greater than 90% Annexin V^+ apoptotic Jurkat cells. After washing in 1×DPBS, apoptotic Jurkat cells were resuspended at a concentration of 2×10^7 cells/mL in Diluent C with either PKH67 (green fluorescence) or PKH26 (red fluorescence) per the manufacturer's instruction. After labeling, the cells were rinsed twice with DMEM basal medium containing 10% HI-FBS and immediately used for efferocytosis assay. For labeling with other fluorescent probes, ACs were resuspended at a density of 2.5×10^6 cells/mL in DMEM basal media and incubated with 20 ng/mL pHrodo red (Life Technologies) and/or Hoechst 33342 solution (20 mM, 1:10,000 dilution, Thermo Scientific) for 30 minutes, or NuclearMask Blue Stain solution (1:2000 dilution, Invitrogen) for 30 minutes. TAMRA staining was applied to ACs at a concentration of 2×10^7 cells/mL in DMEMbasal medium at 10 μg/mL for 25 minutes.

Assay [3] concerns Jurkat cells and mouse thymocytes. In words: AC preparation for efferocytosis assays (Example 2). The class given is cell-based, human. Particulars: 3 hours. As for the experimental part: AC preparation and labeling for efferocytosis assays: Jurkat cells (about 10 μm, a human T cell line) and mouse thymocytes (about 5 μm, isolated from mouse thymi) are treated with staurosporine for 3 hours to induce apoptosis. The method routinely yields greater than 90% Annexin V+ ACs (Shi et al., 2022). GA treatment at 10 mM for 1-minute leads to an increase in cell rigidity (Sosale et al., 2015). Mouse RBC are isolated from whole blood freshly and opsonized by IgG (Sosale et al., 2015). Storage at 4° C. for one-week or treatment by GA increases rigidity (Sosale et al., 2015). Mouse RBC are freshly prepared because commercial RBCs are often stored in cold conditions for shipment and thus likely already have increased rigidity. Cells will be labeled by TAMRA (10 μg/mL, 25 minutes, Invitrogen #C1171) that labels both DNA and protein (Shi et al., 2022; Bi et al., 2022). To assess uptake and acidification, ACs are fluorescently labeled by TAMRA (pH-insensitive) and pHrodo (20 ng/mL, 30 minutes, ThermoFisher #P35373, pH-sensitive and only fluoresces in acidic environments) (Shi et al., 2022; Bi et al., 2022). RBC are labeled by PKH26 which labels membrane lipids (Sigma PKH26GL-1KT) (Shi et al., 2022). Cell debris is prepared by passing labeled ACs 10 times through 27G needles (Puigdellivol et al., 2021). […] The % of macrophages that engulfed cargo will be quantified by FACS (Shi et al., 2022).

Structures are written as SMILES.

On to `O=CCCCC=O` [Glutaraldehyde], for which the “engulfment of GA-treated (rigid) ACs by BMDMs” value is on record as “increased engulfment” in assay [1] and “more effective engulfment” in assay [1] (listed as GA).

As for `CN[C@@H]1C[C@H]2O[C@@](C)([C@@H]1OC)n1c3ccccc3c3c4c(c5c6ccccc6n2c5c31)C(=O)NC4` [staurosporine], the “Annexin V+ apoptotic Jurkat cells” value in assay [2] is “greater than 90%”. Moreover, in assay [3], the “Annexin V+ ACs” value was “greater than 90%”.
